Data from patent US20140271734A1, “BILE ACID RECYCLING INHIBITORS FOR TREATMENT OF BARRETT'S ESOPHAGUS AND GASTROESOPHAGEAL REFLUX DISEASE” (LUMENA PHARMACEUTICALS, INC., priority 2013, published 2014).
Like-named read-outs stand apart in the source and are kept apart here.

Tests used:
serum bile acids = assay: Fasting and post-prandial serum bile acids in children and adolescents on LUM001; type: in vivo, human
Experimental: LUM001 has been administered to forty patients under the age of 18 years old. […] The drug was administered once-a-day (QD) in the morning for fourteen days. […] These doses are similar to those using to treat patients with Barrett's esophagus or GERD.
The efficacy of LUM001 was determined by measuring total serum bile acids after eight days of dosing in children and adolescents under the age of eighteen. Thirty minutes before the next drug administration, at approximately 8 am in the morning, serum bile acid levels were measured. The child had refrained from food for 12 hours prior to this sample thus providing a fasted level of serum bile acid. After breakfast, serum bile acids were measured for up to the next 4 hours (8 am to noon) and the peak serum bile acid concentration noted.

[1] = Pharmacokinetics of LUM001 after oral solution and capsule in dogs; type: in vivo, Beagle dogs; conditions: for Cmax / Tmax / AUC(0-t) / bioavailability: female, Beagle, dog, plasma; for Cmax / Tmax / AUC(0-t): po, 7.5 mg/kg; for AUC(0-t): read-out: AUC(0-24 h); for bioavailability: read-out: BA (bioavailability)
Experimental: Three fasted female Beagle dogs were administered LUM001 either as an oral solution at doses of 1 or 7.5 mg LUM001 free form/kg or in an oral capsule at a dose of 7.5 mg LUM001 free form/kg in a cross-over design. A dose of 7.5 mg LUM001 free form/kg was also administered as an oral solution to fed beagle dogs to evaluate the effect of food on plasma concentrations of LUM001.
Blood samples of approximately 3 mL was collected by venipuncture or indwelling catheter into chilled tubes containing heparin at the following timepoints: 0 (predose), 0.5, 1, 1.5, 2, 3, 5, 6, 8, 10, and 24 hours. The plasma samples were prepared by centrifugation of blood within 30 minutes after sample collection. All samples were stored at −20° C.±5° C. until analysis to study the relative exposures of LUM001 free form after capsule or oral solution dosing.

[2] = Toxicokinetics of LUM001 free form, 13-week oral gavage toxicity study in rats; type: in vivo; conditions: for AUC(0-t) / Cmax / Tmax: rat, plasma, oral; for AUC(0-t): read-out: AUC(0-24 h)
Experimental: Charles River CD IGS rats were assigned to treatment groups (9sex/toxicokinetic group) and were administered daily doses of 0, 5, 30, 75, and 150 mg/kg (males) or 0, 5, 30, 150, and 500 mg/kg (females). LUM001 was administered by once daily oral gavage in distilled water and fresh dosing solutions were prepared weekly. All animals were dosed with 10 mL/kg/day based on the most recently determined body weights. On Day 1 and during Week 12, approximately 1 mL of venous blood was collected in heparinized tubes from the retro-orbital venous plexus. Animals were anesthetized with CO2-O2 and blood samples were collected at 1, 2, 3, 5, 8, and 24 hours post-dose. Survival permitting, the first 3 animals/sex dose group were bled at 1 and 5 hours post-dose, the second 3 animals/sex/dose group were bled at 2 and 8 hours post-dose, and the last 3 animals/sex/dose group were bled at 3 and 24 hours post-dose. Blood collection tubes were kept on ice during the collection period after which they were centrifuged and the plasma was harvested within approximately 60 minutes of blood collection. Plasma samples were stored at approximately −20° C. or lower until analyzed.
The concentration of LUM001 free form in plasma were determined using an LCMSMS method. The assay sensitivity was 4.75 ng/mL. Means and standard errors of the means (SEM) were calculated for plasma concentrations at each time point. Mean values are significant to three figures and SEM values are significant to the same decimal place as the corresponding mean. Concentration values less than the assay sensitivity (4.75 ng LUM001 free form/mL) were reported as zero. The observed peak plasma concentrations (Cmax) of LUM001 free form, time to reach peak plasma concentration (Tmax) and areas under the plasma concentration-time curve (AUC0-24) were calculated by the TOXAUC computer program (1). For calculation purposes the 0 hr plasma concentrations were set to zero on Day 1 and to the concentrations at 24 hr post dose on Day 78. The TK parameters were calculated from mean data for each group of rats. The bioavailability (% BA) of LUM001 after oral administration of LUM001 was calculated according to the equation below:
% BA=[AUC oral (0-8)/AUC IV(0-8)/Dose oral/Dose IV]×100

[3] = system: Alkaline Phosphatase (ALP); conditions: twice daily oral gavage; Week 3
Experimental: This study was conducted to determine the effects of two non-absorbed ASBTi compounds in the ZDF rat model after 3 weeks of treatment.
Animals were acclimatized for 5-7 days after arrival. […] The 2nd set of study was initiated after completion of the 1st. Test compound formulation prepared every other day and stored at 4° C. […] After 3rd week of treatment blood samples were collected by cardiac puncture from fasted animals for blood chemistry analysis: ALAT, ASAT, GGT, Alkaline Phosphatase and total Bile Acids. Tests were performed in contract clinical laboratory (Liver Profile SA320, Antech Diagnostics, Orange Country, Calif.).
Blood was collected by tail vein bleed weekly and after 3 weeks of treatment by cardiopuncture for serum tests. Data for each group is presented as the Mean Value±SEM. Statistically evaluation by t-test: *P<0.05, **P<0.01,***P<0.001 vs. vehicle group.

Hemoglobin A1c (HbA1c) = assay: Baseline-corrected percent HbA1c in ZDF rats; type: in vivo; conditions: twice daily oral gavage
[4] = oral capsule 7.5 mg/kg free form, fasted
[5] = oral solution 7.5 mg/kg free form, fed
[6] = both sexes, CD IGS, Day 1, 150 mg/kg, Comb
[7] = both sexes, Charles River CD IGS, Day 78, 30.0 mg/kg, Comb
[8] = both sexes, Charles River CD IGS, Day 78, 150 mg/kg, Comb
[9] = female, CD IGS, Day 1, 150 mg/kg, F
[10] = female, CD IGS, Day 1, 500 mg/kg, F
[11] = female, Charles River CD IGS, Day 78, 30.0 mg/kg, F
[12] = female, Charles River CD IGS, Day 78, 150 mg/kg, F
[13] = female, Charles River CD IGS, Day 78, 500 mg/kg, F
[14] = male, CD IGS, Day 1, 30.0 mg/kg, M
[15] = male, CD IGS, Day 1, 75.0 mg/kg, M
[16] = male, CD IGS, Day 1, 150 mg/kg, M
[17] = male, Charles River CD IGS, Day 78, 5.0 mg/kg, M
[18] = male, Charles River CD IGS, Day 78, 30.0 mg/kg, M
[19] = male, Charles River CD IGS, Day 78, 75.0 mg/kg, M
[20] = male, Charles River CD IGS, Day 78, 150 mg/kg, M

## CCCCC1(CCCC)CS(=O)(=O)c2ccc(N(C)C)cc2[C@@H](c2ccc(OCc3ccc(C[N+]45CCN(CC4)CC5)cc3)cc2)[C@H]1O [LUM001]
Serum bile acids; LUM001 treated patients
  Decrease of average fasting serum bile acid vs placebo patients: 24%
  Decrease of average post-prandial peak serum bile acid vs placebo patients: 23%
Serum bile acids; LUM001 treated patients (placebo 11.9)
  Average post-prandial peak serum bile acid level: 9.2 µmol/L
Serum bile acids; Patient 304, 1 mg, after eight days of dosing
  Morning Post-prandial peak serum bile acid: 8.4 µmol/L
Serum bile acids; Patient 308, 1 mg, after eight days of dosing
  Morning Post-prandial peak serum bile acid: 9.3 µmol/L
Serum bile acids; Patient 309, 1 mg, after eight days of dosing
  Morning Post-prandial peak serum bile acid: 10.0 µmol/L
Serum bile acids; Patient 401, 2.5 mg, after eight days of dosing
  Morning Post-prandial peak serum bile acid: 6.8 µmol/L
Serum bile acids; children and adolescents, after eight days of dosing
  Fasting and post-prandial peak levels of serum bile acids: generally decrease both the fasting and post-prandial peak levels of serum bile acids
[1]; [4]
  Cmax: 4.24 ng/mL
  Tmax: 5 h
  AUC(0-t): 33.7 ng·h/mL
  bioavailability: < 0.1%
[1]; [5]
  Cmax: 1.28 ng/mL
  Tmax: 0.5 h
  AUC(0-t): 3.9 ng·h/mL
  BA (bioavailability): <0.1%
[1]; oral solution 1 mg/kg free form, fasted
  bioavailability: < 0.1%
[1]; oral solution 7.5 mg/kg free form, fasted
  BA (bioavailability): <0.1%
[2]; Day 1, 5.0 mg/kg, F
  BA: <0.1%
[2]; Day 1, 5.0 mg/kg, M
  BA: <0.1%
[2]; Day 1, 30.0 mg/kg, F
  BA: <0.1%
[2]; Day 1, 75.0 mg/kg, M
  BA: <0.1%
[2]; Day 1, 150 mg/kg, Comb
  BA: <0.1%
[2]; Day 1, 500 mg/kg, F
  BA: <0.1%
[2]; Day 78, 5.0 mg/kg, F
  BA: <0.1%
[2]; Day 78, 30.0 mg/kg, Comb
  BA: <0.1%
[2]; Day 78, 75.0 mg/kg, M
  BA: <0.1%
[2]; Day 78, 150 mg/kg, Comb
  BA: <0.1%
[2]; Day 78, 500 mg/kg, F
  BA: <0.1%
[2]; both sexes, CD IGS, 150 mg/kg, Day 1, 150 mg/kg, Comb
  AUC(0-t): 101 ng·h/mL
[2]; [6]
  Cmax: 37.3 ng/mL
  Tmax: 2 h
[2]; both sexes, Charles River CD IGS, 30 mg/kg, Day 78, 30.0 mg/kg, Comb
  AUC(0-t): 11.7 ng·h/mL
[2]; both sexes, Charles River CD IGS, 150 mg/kg, Day 78, 150 mg/kg, Comb
  AUC(0-t): 132 ng·h/mL
[2]; [7]
  Cmax: 4.35 ng/mL
  Tmax: 3 h
[2]; [8]
  Cmax: 24.1 ng/mL
  Tmax: 1 h
[2]; female, CD IGS, 150 mg/kg, Day 1, 150 mg/kg, F
  AUC(0-t): 106 ng·h/mL
[2]; [9]
  Cmax: 42.4 ng/mL
  Tmax: 2 h
[2]; [10]
  Cmax: 9.99 ng/mL
  Tmax: 3 h
[2]; female, Charles River CD IGS, 30 mg/kg, Day 78, 30.0 mg/kg, F
  AUC(0-t): 12.4 ng·h/mL
[2]; female, Charles River CD IGS, 150 mg/kg, Day 78, 150 mg/kg, F
  AUC(0-t): 124 ng·h/mL
[2]; female, Charles River CD IGS, 500 mg/kg, Day 1, 500 mg/kg, F
  AUC(0-t): 90.8 ng·h/mL
[2]; female, Charles River CD IGS, 500 mg/kg, Day 78, 500 mg/kg, F
  AUC(0-t): 470 ng·h/mL
[2]; [11]
  Cmax: 3.95 ng/mL
  Tmax: 3 h
[2]; [12]
  Cmax: 22.2 ng/mL
  Tmax: 2 h
[2]; [13]
  Cmax: 62.9 ng/mL
  Tmax: 3 h
[2]; male, CD IGS, 30 mg/kg, Day 1, 30.0 mg/kg, M
  AUC(0-t): 15.1 ng·h/mL
[2]; male, CD IGS, 75 mg/kg, Day 1, 75.0 mg/kg, M
  AUC(0-t): 6.37 ng·h/mL
[2]; male, CD IGS, 150 mg/kg, Day 1, 150 mg/kg, M
  AUC(0-t): 96.3 ng·h/mL
[2]; [14]
  Cmax: 8.59 ng/mL
  Tmax: 2 h
[2]; [15]
  Cmax: 2.55 ng/mL
  Tmax: 5 h
[2]; [16]
  Cmax: 32.1 ng/mL
  Tmax: 3 h
[2]; male, Charles River CD IGS, 5 mg/kg, Day 78, 5.0 mg/kg, M
  AUC(0-t): 11.1 ng·h/mL
[2]; male, Charles River CD IGS, 30 mg/kg, Day 78, 30.0 mg/kg, M
  AUC(0-t): 11.4 ng·h/mL
[2]; male, Charles River CD IGS, 75 mg/kg, Day 78, 75.0 mg/kg, M
  AUC(0-t): 61.4 ng·h/mL
[2]; male, Charles River CD IGS, 150 mg/kg, Day 78, 150 mg/kg, M
  AUC(0-t): 141 ng·h/mL
[2]; [17]
  Cmax: 5.8 ng/mL
  Tmax: 2 h
[2]; [18]
  Cmax: 4.75 ng/mL
  Tmax: 3 h
[2]; [19]
  Cmax: 5.71 ng/mL
  Tmax: 8 h
[2]; [20]
  Cmax: 28.3 ng/mL
  Tmax: 1 h

## CCCC[C@]1(CC)CS(=O)(=O)c2ccc(N(C)C)cc2[C@@H](c2cccc(NC(=O)N[C@@H]3O[C@H](COS(=O)(=O)[O-])[C@@H](O)[C@H](OCc4ccccc4)[C@H]3O)c2)[C@H]1O.CCO.O.[K+] [LUM002, potassium((2R,3R,4S,5R,6R)-4-benzyloxy-6-{3-[3-((3S,4R,5R)-3-butyl-7-dimethylamino-3-ethyl-4-hydroxy-1,1-dioxo-2,3,4,5-tetrahydro-1H-benzo[b]thiepin-5-yl)-phenyl]-ureido}-3,5-dihydroxy-tetrahydro-pyran-2-ylmethyl)sulphate ethanolate, hydrate]
[3]
  Plasma alkaline phosphatase (ALP): significant reductions in ALP
Hemoglobin A1c (HbA1c)
  Baseline-corrected percent HbA1c: significant dose-dependent reductions
